The target in this assay is T1, mTRPC5 (Mus musculus, UniProt Q9QX29).
T1 construct: expressed in transfected cells
T1 sequence (Q9QX29 1-975): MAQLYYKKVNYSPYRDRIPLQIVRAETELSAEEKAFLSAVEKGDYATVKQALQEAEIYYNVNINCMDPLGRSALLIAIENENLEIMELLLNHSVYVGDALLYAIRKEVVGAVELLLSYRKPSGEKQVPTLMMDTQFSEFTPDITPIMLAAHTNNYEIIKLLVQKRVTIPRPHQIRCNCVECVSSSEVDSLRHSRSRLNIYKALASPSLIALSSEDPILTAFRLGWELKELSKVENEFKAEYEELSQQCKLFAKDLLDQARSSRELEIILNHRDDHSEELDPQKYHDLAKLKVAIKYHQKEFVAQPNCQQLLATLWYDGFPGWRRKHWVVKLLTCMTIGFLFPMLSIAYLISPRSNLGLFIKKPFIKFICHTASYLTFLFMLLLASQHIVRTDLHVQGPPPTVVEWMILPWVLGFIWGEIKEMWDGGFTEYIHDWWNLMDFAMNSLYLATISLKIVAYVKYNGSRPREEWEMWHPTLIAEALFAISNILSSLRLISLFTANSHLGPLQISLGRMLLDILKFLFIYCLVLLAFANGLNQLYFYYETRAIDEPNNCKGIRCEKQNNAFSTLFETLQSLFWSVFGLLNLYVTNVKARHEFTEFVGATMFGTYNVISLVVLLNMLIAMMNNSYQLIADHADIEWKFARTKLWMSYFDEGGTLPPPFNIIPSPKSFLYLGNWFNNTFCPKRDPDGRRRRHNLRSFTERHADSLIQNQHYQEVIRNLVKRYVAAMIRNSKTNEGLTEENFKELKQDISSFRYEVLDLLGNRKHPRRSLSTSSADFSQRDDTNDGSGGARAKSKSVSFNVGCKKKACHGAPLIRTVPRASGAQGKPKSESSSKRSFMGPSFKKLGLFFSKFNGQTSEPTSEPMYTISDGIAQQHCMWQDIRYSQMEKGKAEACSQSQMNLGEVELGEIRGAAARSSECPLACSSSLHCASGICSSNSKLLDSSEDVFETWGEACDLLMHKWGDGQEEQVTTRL
Briefly: Trypsin-induced Ca2+ entry, fluo-4 fluorometric imaging plate reader, TRPC5 HEK-FITR cells. The class given is cell-based. On the procedure:
Cells were grown at 37°C in a humidified atmosphere (5% or 7% CO2) under standard cell culture conditions. Stable human embryonic kidney (HEK) cell lines expressing recombinant mTRPC4ß (GenBank accession number AAC05178); mTRPC5 (GenBank accession number NM_009428) or hTRPC6 (GenBank accession number AF080394) under the control of a tetracycline-inducible promoter were generated using the Flp-In T-Rex (FITR) system (Invitrogen, Karlsruhe, Germany). […]
Cells grown to an almost confluent monolayer on black poly-D-lysine coated 96-well plates (Greiner, Frickenhausen, Germany) were washed with standard extracellular solution (140 mM NaCl, 1 mM MgCl2, 5.4 mM KCl, 2 mM CaCl2, 10 mM HEPES, 10 mM glucose, pH 7.35) and stained (30 min, room temperature) with dye solution (2 µM fluo-4 AM, 0.02% pluronic F127, 0.1% bovine serum albumin in standard extracellular solution). […] Fluo-4 fluorescence was excited at 488 nm with an argon laser and measured using a fluorometric imaging plate reader (Molecular Devices, Sunnyvale, USA). […]
TRPC4- and TRPC5-mediated Ca^2+ influx was stimulated by application of trypsin that activates endogenous Gq-coupled protease activated receptors in HEK cells. […] Compound effects were then calculated from the area under the curve and normalized to the Ca^2+ influx into trypsin-stimulated, non-compound-treated cells. […]

By IC50 is commonly meant the concentration at which inhibition is half-maximal. For `CC(=O)[C@H]1CC[C@H]2[C@@H]3CCC4=CC(=O)CC[C@]4(C)[C@H]3CC[C@]12C` [progesterone], where the note is “TRPC5 HEK-FITR cells, fluo-4, 200 nM trypsin, read-out: IC50, inhibition of trypsin-induced Ca2+ entry via TRPC5”, the IC50 was found to be 11.8 µM. For the same compound, the “Hill slope n, inhibition of TRPC5-mediated Ca2+ entry” value (fit to Hill model) is given as 2.5.

The record behind these values is publication PMC3328449, “Inhibition of Diacylglycerol–Sensitive TRPC Channels by Synthetic and Natural Steroids” (PLoS ONE, 2012).
